Results published in patent US20230143604A1, “QW DOSING OF GIP RECEPTOR AGONIST PEPTIDE COMPOUNDS AND USES THEREOF” (TAKEDA PHARMACEUTICAL COMPANY LIMITED, priority 2020, published 2023).
Starred links: 1 amine or outer side, 2 acyl side, 3 side chain; linkers in the order of their positions; H or OH if unused. Non-standard residues stand in square brackets, D forms with d. Residues, ends and D or L forms follow the SMILES beside them. Groups on a side chain read outwards from the residue. *: point of attachment. C18 diacid = O=C(O)CCCCCCCCCCCCCCCCC(=O)*; C17 diacid = O=C(O)CCCCCCCCCCCCCCCC(=O)*; γGlu = O=C(O)[C@H](CCC(=O)[*:2])N[*:1]; NMeY = CN[C@@H](Cc1ccc(O)cc1)C(=O)O; AEEA = NCCOCCOCC(=O)O; Aib = CC(C)(N)C(=O)O

Test: Solubility in phosphate buffer pH 7.4
In short: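 Solubility at pH 7.4 determined by stepwise addition of 200 mM phosphate buffer in 100 μL increments to 3 mg peptide, mixing briefly each time, until no insoluble material remained, then measured by liquid chromatography.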

[1] = pH 7.4, aqueous buffer, pH 7.4 Phosphate Buffer - Solubility, 200 mM Phosphate buffer pH 7.4

| SMILES | solubility [1] [mg/mL] | solubility (pH 7.4) [mg/mL] | solubility (pH 7.4, aqueous buffer) [mg/mL] |
| --- | --- | --- | --- |
| CC[C@H](C)[C@H](NC(=O)[C@H](CO)NC(=O)[C@H](Cc1ccc(O)cc1)NC(=O)[C@H](CC(=O)O)NC(=O)[C@H](CO)NC(=O)[C@@H](NC(=O)[C@H](Cc1ccccc1)NC(=O)[C@@H](NC(=O)CNC(=O)[C@H](CCC(=O)O)NC(=O)C(C)(C)NC(=O)[C@H](Cc1ccc(O)cc1)NC)[C@@H](C)O)[C@@H](C)CC)C(=O)N[C@@H](C)C(=O)N[C@@H](CC(C)C)C(=O)N[C@@H](CC(=O)O)C(=O)N[C@@H](CCCNC(=N)N)C(=O)NC(C)(C)C(=O)N[C@@H](CCCCNC(=O)COCCOCCNC(=O)COCCOCCNC(=O)CC[C@H](NC(=O)CCCCCCCCCCCCCCCC(=O)O)C(=O)O)C(=O)N[C@@H](CCC(N)=O)C(=O)NC(C)(C)C(=O)N[C@@H](CC(N)=O)C(=O)N[C@@H](Cc1ccccc1)C(=O)N[C@H](C(=O)N[C@@H](CC(N)=O)C(=O)N[C@@H](Cc1c[nH]c2ccccc12)C(=O)N[C@@H](CC(C)C)C(=O)N[C@@H](CC(C)C)C(=O)N[C@@H](C)C(=O)N[C@@H](CCC(N)=O)C(=O)N[C@@H](CO)C(=O)N1CCC[C@H]1C(=O)N[C@@H](CO)C(=O)N[C@@H](CO)C(=O)NCC(=O)N[C@@H](C)C(=O)N1CCC[C@H]1C(=O)N1CCC[C@H]1C(=O)N1CCC[C@H]1C(=O)N[C@@H](CO)C(N)=O)C(C)C [Compound 268] (H-[NMeY][Aib]EGTFISDYSIALDR[Aib]K([AEEA-AEEA-γGlu-C17 diacid])Q[Aib]NFVNWLLAQSPSSGAPPPS-NH2) | ≥ 10 |  |  |
| CC[C@H](C)[C@H](NC(=O)[C@H](CO)NC(=O)[C@H](Cc1ccc(O)cc1)NC(=O)[C@H](CC(=O)O)NC(=O)[C@H](CO)NC(=O)[C@@H](NC(=O)[C@H](Cc1ccccc1)NC(=O)[C@@H](NC(=O)CNC(=O)[C@H](CCC(=O)O)NC(=O)C(C)(C)NC(=O)[C@H](Cc1ccc(O)cc1)NC)[C@@H](C)O)[C@@H](C)CC)C(=O)N[C@@H](C)C(=O)N[C@@H](CC(C)C)C(=O)N[C@@H](CC(=O)O)C(=O)N[C@@H](CCCNC(=N)N)C(=O)NC(C)(C)C(=O)N[C@@H](C)C(=O)N[C@@H](CCC(N)=O)C(=O)NC(C)(C)C(=O)N[C@@H](CC(=O)O)C(=O)N[C@@H](Cc1ccccc1)C(=O)N[C@H](C(=O)N[C@@H](CC(N)=O)C(=O)N[C@@H](Cc1c[nH]c2ccccc12)C(=O)N[C@@H](CC(C)C)C(=O)N[C@@H](CC(C)C)C(=O)N[C@@H](C)C(=O)N[C@@H](CCCCNC(=O)COCCOCCNC(=O)COCCOCCNC(=O)CC[C@H](NC(=O)CC[C@H](NC(=O)CCCCCCCCCCCCCCCCC(=O)O)C(=O)O)C(=O)O)C(=O)N[C@@H](CCCNC(=N)N)C(=O)NCC(=O)NCC(=O)NCC(=O)NCC(=O)N[C@@H](CO)C(N)=O)C(C)C [Compound 57] (H-[NMeY][Aib]EGTFISDYSIALDR[Aib]AQ[Aib]DFVNWLLAK([AEEA-AEEA-γGlu-γGlu-C18 diacid])RGGGGS-NH2) |  | ≥ 15 | ≥ 30 |
| CC[C@H](C)[C@H](NC(=O)[C@H](CO)NC(=O)[C@H](Cc1ccc(O)cc1)NC(=O)[C@H](CC(=O)O)NC(=O)[C@H](CO)NC(=O)[C@@H](NC(=O)[C@H](Cc1ccccc1)NC(=O)[C@@H](NC(=O)CNC(=O)[C@H](CCC(=O)O)NC(=O)C(C)(C)NC(=O)[C@H](Cc1ccc(O)cc1)NC)[C@@H](C)O)[C@@H](C)CC)C(=O)N[C@@H](C)C(=O)N[C@@H](CC(C)C)C(=O)N[C@@H](CC(=O)O)C(=O)N[C@@H](CCCNC(=N)N)C(=O)NC(C)(C)C(=O)N[C@@H](C)C(=O)N[C@@H](CCC(N)=O)C(=O)NC(C)(C)C(=O)N[C@@H](CCCCNC(=O)COCCOCCNC(=O)COCCOCCNC(=O)CC[C@H](NC(=O)CC[C@H](NC(=O)CCCCCCCCCCCCCCCC(=O)O)C(=O)O)C(=O)O)C(=O)N[C@@H](Cc1ccccc1)C(=O)N[C@H](C(=O)N[C@@H](CC(N)=O)C(=O)N[C@@H](Cc1c[nH]c2ccccc12)C(=O)N[C@@H](CC(C)C)C(=O)N[C@@H](CC(C)C)C(=O)N[C@@H](C)C(=O)N[C@@H](CCC(N)=O)C(=O)N[C@@H](CCCNC(=N)N)C(=O)O)C(C)C [Compound 9] (H-[NMeY][Aib]EGTFISDYSIALDR[Aib]AQ[Aib]K([AEEA-AEEA-γGlu-γGlu-C17 diacid])FVNWLLAQR-OH) |  | ≥ 15 | ≥ 30 |
| CC[C@H](C)[C@H](NC(=O)[C@H](CO)NC(=O)[C@H](Cc1ccc(O)cc1)NC(=O)[C@H](CC(=O)O)NC(=O)[C@H](CO)NC(=O)[C@@H](NC(=O)[C@H](Cc1ccccc1)NC(=O)[C@@H](NC(=O)CNC(=O)[C@H](CCC(=O)O)NC(=O)C(C)(C)NC(=O)[C@H](Cc1ccc(O)cc1)NC)[C@@H](C)O)[C@@H](C)CC)C(=O)N[C@@H](C)C(=O)N[C@@H](CC(C)C)C(=O)N[C@@H](CC(=O)O)C(=O)N[C@@H](CCCNC(=N)N)C(=O)NC(C)(C)C(=O)N[C@@H](Cc1c[nH]cn1)C(=O)N[C@@H](CCC(N)=O)C(=O)NC(C)(C)C(=O)N[C@@H](CCCCNC(=O)COCCOCCNC(=O)COCCOCCNC(=O)CC[C@H](NC(=O)CC[C@H](NC(=O)CCCCCCCCCCCCCCCCC(=O)O)C(=O)O)C(=O)O)C(=O)N[C@@H](Cc1ccccc1)C(=O)N[C@H](C(=O)N[C@@H](CC(N)=O)C(=O)N[C@@H](Cc1c[nH]c2ccccc12)C(=O)N[C@@H](CC(C)C)C(=O)N[C@@H](CC(C)C)C(=O)N[C@@H](C)C(=O)N[C@@H](CCC(N)=O)C(=O)N[C@@H](CCCNC(=N)N)C(N)=O)C(C)C [Compound 18] (H-[NMeY][Aib]EGTFISDYSIALDR[Aib]HQ[Aib]K([AEEA-AEEA-γGlu-γGlu-C18 diacid])FVNWLLAQR-NH2) |  | ≥ 15 | ≥ 30 |
| CC[C@H](C)[C@H](NC(=O)[C@H](Cc1ccccc1)NC(=O)[C@@H](NC(=O)CNC(=O)[C@H](CCC(=O)O)NC(=O)C(C)(C)NC(=O)[C@H](Cc1ccc(O)cc1)NC)[C@@H](C)O)C(=O)N[C@@H](CO)C(=O)N[C@@H](CC(=O)O)C(=O)N[C@@H](Cc1ccc(O)cc1)C(=O)N[C@@H](CO)C(=O)N[C@H](C(=O)NC(C)(C)C(=O)N[C@@H](CCCCNC(=O)CNC(=O)CNC(=O)CNC(=O)CNC(=O)CNC(=O)CCCCCCCCCCCCCCCCC(=O)O)C(=O)N[C@@H](CC(=O)O)C(=O)N[C@@H](CCCNC(=N)N)C(=O)NC(C)(C)C(=O)N[C@@H](C)C(=O)N[C@@H](CCC(N)=O)C(=O)NC(C)(C)C(=O)N[C@@H](CC(N)=O)C(=O)N[C@@H](Cc1ccccc1)C(=O)N[C@H](C(=O)N[C@@H](CC(N)=O)C(=O)N[C@@H](Cc1c[nH]c2ccccc12)C(=O)N[C@@H](CC(C)C)C(=O)N[C@@H](CC(C)C)C(=O)N[C@@H](C)C(=O)N[C@@H](CCC(N)=O)C(=O)N[C@@H](CO)C(=O)N1CCC[C@H]1C(=O)N[C@@H](CO)C(=O)N[C@@H](CO)C(=O)NCC(=O)N[C@@H](C)C(=O)N1CCC[C@H]1C(=O)N1CCC[C@H]1C(=O)N1CCC[C@H]1C(=O)N[C@@H](CO)C(N)=O)C(C)C)[C@@H](C)CC [Compound 275] | < 15 |  |  |
| CC[C@H](C)[C@H](NC(=O)[C@H](CO)NC(=O)[C@H](Cc1ccc(O)cc1)NC(=O)[C@H](CC(=O)O)NC(=O)[C@H](CO)NC(=O)[C@@H](NC(=O)[C@H](Cc1ccccc1)NC(=O)[C@@H](NC(=O)CNC(=O)[C@H](CCC(=O)O)NC(=O)C(C)(C)NC(=O)[C@@H](N)Cc1ccc(O)cc1)[C@@H](C)O)[C@@H](C)CC)C(=O)N[C@@H](C)C(=O)NC(C)(C)C(=O)N[C@@H](CC(=O)O)C(=O)N[C@@H](CCCCN)C(=O)N[C@@H](C)C(=O)N[C@@H](CCCCNC(=O)COCCOCCNC(=O)COCCOCCNC(=O)CC[C@H](NC(=O)CCCCCCCCCCCCCCCCC(=O)O)C(=O)O)C(=O)N[C@@H](CCC(N)=O)C(=O)N[C@@H](CCC(N)=O)C(=O)N[C@@H](CC(=O)O)C(=O)N[C@@H](Cc1ccccc1)C(=O)N[C@H](C(=O)N[C@@H](CCC(=O)O)C(=O)N[C@@H](Cc1c[nH]c2ccccc12)C(=O)N[C@@H](CC(C)C)C(=O)N[C@@H](CC(C)C)C(=O)N[C@@H](C)C(=O)N[C@@H](CCC(N)=O)C(=O)N[C@@H](CCCNC(=N)N)C(=O)NCC(=O)O)C(C)C [Compound 164] (H-Y[Aib]EGTFISDYSIA[Aib]DKAK([AEEA-AEEA-γGlu-C18 diacid])QQDFVEWLLAQRG-OH) |  | ≥ 15 | ≥ 30 |
| CC[C@H](C)[C@H](NC(=O)[C@H](Cc1ccccc1)NC(=O)[C@@H](NC(=O)CNC(=O)[C@H](CCC(=O)O)NC(=O)C(C)(C)NC(=O)[C@H](Cc1ccc(O)cc1)NC)[C@@H](C)O)C(=O)N[C@@H](CO)C(=O)N[C@@H](CC(=O)O)C(=O)N[C@@H](Cc1ccc(O)cc1)C(=O)N[C@@H](CO)C(=O)N[C@H](C(=O)NC(C)(C)C(=O)N[C@@H](CCCCNC(=O)COCCOCCNC(=O)COCCOCCNC(=O)CC[C@H](NC(=O)CC[C@H](NC(=O)CCCCCCCCCCCCCCCC(=O)O)C(=O)O)C(=O)O)C(=O)N[C@@H](CC(=O)O)C(=O)N[C@@H](CCCNC(=N)N)C(=O)NC(C)(C)C(=O)N[C@@H](C)C(=O)N[C@@H](CCC(N)=O)C(=O)NC(C)(C)C(=O)N[C@@H](CC(N)=O)C(=O)N[C@@H](Cc1ccccc1)C(=O)N[C@H](C(=O)N[C@@H](CC(N)=O)C(=O)N[C@@H](Cc1c[nH]c2ccccc12)C(=O)N[C@@H](CC(C)C)C(=O)N[C@@H](CC(C)C)C(=O)N[C@@H](C)C(=O)N[C@@H](CCC(N)=O)C(=O)N[C@@H](CCCNC(=N)N)C(=O)NCC(=O)NCC(=O)NCC(=O)NCC(=O)N[C@@H](CO)C(N)=O)C(C)C)[C@@H](C)CC [Compound 32] (H-[NMeY][Aib]EGTFISDYSI[Aib]K([AEEA-AEEA-γGlu-γGlu-C17 diacid])DR[Aib]AQ[Aib]NFVNWLLAQRGGGGS-NH2) |  | ≥ 15 | ≥ 30 |
